Reference: patent US20070135383A1, “Phospholipase inhibitors, including multi-valent phospholipase inhibitors, and use thereof, including as lumen-localized phospholipase inhibitors” (priority 2005, published 2007)

Legend:
[1] = test system: wild-type C57BL/6 mice on high fat/high sucrose diet; assay: In-vivo evaluation on high fat/high sucrose diabetogenic diet, 10 weeks (Example 10); design: species or system mouse; settings: for fasting glucose levels: low dose 25 mg/kg/day
Method: ILY-4001 (FIG. 7) was evaluated as a PLA2 IB inhibitor in a set of experiments using wild-type mice and genetically deficient PLA2 (−/−) mice (also referred to herein as PLA2 knock-out (KO) mice). In these experiments, wild-type and PLA2 (−/−) mice were maintained on a high fat/high sucrose diet, details of which are described below.
Briefly, four groups were set up, each having six mice. Three of the groups included six wild-type PLA2 (+/+) mice in each group (eighteen mice total), and one of the groups included six genetically deficient PLA2 (−/−) mice. One of the wild-type groups was used as a wild-type control group, and was not treated with ILY-4001. The other two wild-type groups were treated with ILY-4001—one group at a lower dose (indicated as “L” in Table 1) of 25 mg/kg/day, and the other at a higher dose (indicated as “H” in Table 1) of 90 mg/kg/day. The group comprising the PLA2 (−/−) mice was used as a positive control group.
The experimental protocol used in this study was as follows. The four groups of mice, including wild type and isogenic PLA2 (−/−) C57BL/J mice were acclimated for three days on a low fat/low carbohydrate diet. After the three day acclimation phase, the animals were fasted overnight and serum samples taken to establish baseline plasma cholesterol, triglyceride, and glucose levels, along with baseline body weight. The mice in each of the treatment groups were then fed a high fat/high sucrose diabetogenic diet (Research Diets D12331). 1000 g of the high fat/high sucrose D12331 diet was composed of casein (228 g), DL-methionine (2 g), maltodextrin 10 (170 g), sucrose (175 g), soybean oil (25 g), hydrogenated coconut oil (333.5 g), mineral mix S10001 (40 g), sodium bicarbonate (10.5 g), potassium citrate (4 g), vitamin mix V10001 (10 g), and choline bitartrate (2 g). This diet was supplemented with ILY-4001 treatments such that the average daily dose of the compound ingested by a 25 g mouse was: 0 mg/kg/day (wild-type control group and PLA2 (−/−) control group); 25 mg/kg/day (low-dose wild-type treatment group), or 90 mg/kg/day (high-dose wild-type treatment group). The animals were maintained on the high fat/high sucrose diet, with the designated ILY-4001 supplementation, for a period of ten weeks.
Body weight measurements were taken for all animals in all treatment and control groups at the beginning of the treatment period and at 4 weeks and 10 weeks after initiation of the study. (See Example 10A). Blood draws were also taken at the beginning of the treatment period (baseline) and at 4 weeks and 10 weeks after initiation of the study, in order to determine fasting glucose (See Example 10B). Cholesterol and triglyceride levels were determined from blood draws taken at the beginning of the treatment (baseline) and at ten weeks. (See […]).

[2] = Stability at low pH; format: physicochemical
[3] = biological target: human PLA2 IB enzyme (Homo sapiens, UniProt P04054); settings: versus the human PLA2 IB enzyme; cited from earlier work
human PLA2 IB enzyme, sequence (P04054 23-148): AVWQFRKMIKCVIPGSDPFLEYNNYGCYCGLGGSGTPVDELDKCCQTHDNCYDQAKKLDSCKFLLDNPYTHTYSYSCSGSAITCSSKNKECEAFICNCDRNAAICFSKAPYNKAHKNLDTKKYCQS

[4] = Bioavailability study, IV vs oral (Example 13); format: in vivo, male CD-1 mice; settings: male, CD-1, mouse, plasma; oral ~30 mg/kg vs IV ~3 mg/kg
Method: Bioavailability was determined for Compound 5-24 (ILY-V-24) as follows. Generally, the bioavailability was calculated by comparing a timecourse of the concentration of the test compound in the serum of mice after an intravenous (IV) dosing, versus the timecourse of the concentration following an oral dosing of the test compound. The IV dose was ˜3 mg/kg, the oral dose was ˜30 mg/kg.
Oral Formulation. The oral formulation was prepared as follows. To sterile flask, 90 ml of sterile Milli-Q water was added. 9 ml of PEG-400 was added (final concentration of 9%). 50 ul of Tween-80 was added (final concentration of 0.05%). 0.9 g of CMC was weighed and added (final concentration of 0.9% w/v). […]
Study Design. […] On study day 0, all the animals were weighed, dosages were calculated and the animals were dosed by oral route (PO) or (IV) as outlined below in Table 5. […]
Calculations. Bioavailability was calculated as follows. Individual doses were calculated based on an average of body weights taken on the day of dosing. Serum concentrations of test compound, as well as the actual concentration of dosing solutions, were measured using 2-dimensional Mass Spectrophotometry after Liquid Chromatography (LC MS/MS). […]

[5] = low and high doses (25 and 90 mg/kg/day), 10 weeks

SMILES	body weight gain ([1]; 25 mg/kg/d and 90 mg/kg/d in diet, week 4 and week 10, vs wild-type control)	plasma levels of cholesterol [1, 5]	plasma levels of triglycerides [1, 5]	fasting glucose levels ([1]; week four)	fasting glucose levels ([1]; week ten)	stability at low pH [2]	IC50 [3]	bioavailability [4]
Cc1c(C(=O)C(N)=O)c2c(OCC(=O)O)cccc2n1Cc1ccccc1-c1ccccc1 [ILY-4001, 2-(3-(2-amino-2-oxoacetyl)-1-(biphenyl-2-ylmethyl)-2-methyl-1H-indol-4-yloxy)acetic acid]	significantly reduced body weight gains	substantially reduced	substantially reduced	moderately beneficial effect	beneficial effect was not observed	stable	~200 nM	–
Cc1c(C(=O)C(N)=O)c2c(OCC(=O)O)cccc2n1CCCCCCCCSCCCCCCCCSCCCCCCCCn1c(C)c(C(=O)C(N)=O)c2c(OCC(=O)O)cccc21 [ILY-V-24, 2,2′-(1,1′-(8,8′-(Octane-1,8-diylbis(sulfanediyl))bis(octane-8,1-diyl))bis(3-(2-amino-2-oxoacetyl)-2-methyl-1H-indole-4,1-diyl))bis(oxy)diacetic acid]	–	–	–	–	–	–	–	4 to 8%
